Measurements from PMC6504873, “High-throughput screening of the Plasmodium falciparum cGMP-dependent protein kinase identified a thiazole scaffold which kills erythrocytic and sexual stage parasites” (Scientific Reports, 2019).
In brackets after ≈: the same amount, converted by molar mass.

Legend:
[1] = Aqueous kinetic solubility assay (CAD); format: physicochemical; conditions: several values in a cell = replicates
Experimental: […] of 10 mM DMSO compound solution is diluted to 100 μl with pH7.4 phosphate buffered saline, equilibrated for 1 hour at room temperature and filtered through Millipore MultiscreenHTS-PCF filter plates (MSSL BPC). The filtrate is quantified by suitably calibrated Charged Aerosol Detector[56].

WT PfPKG = target: T1, WT PfPKG (Plasmodium falciparum, UniProt Q8I719); parameters: species or system P. falciparum; conditions: for LE: ligand efficiency; for LLE: lipophilic ligand efficiency
T1 construct: recombinant full length wild type (WT) PfPKG; His6 (N); host or cells: E. coli BL21
From the text: A scoring system was developed to further prioritize interesting compounds. […] Three points were given to compounds that inhibit HuPKGIα at least 3 orders of magnitude less than WT PfPKG. […] We also considered how well the compounds bind to the target by taking into account two physicochemical properties: ligand efficiency (LE, 1.37 x pIC50/number heavy atoms) is a characterization of a compound’s efficiency on a per-heavy-atom basis[51] and lipophilic ligand efficiency (LLE, pIC50 – clogP) is a parameter used in drug design which links potency and lipophilicity in an attempt to estimate drug-likeness[52]. The ClogP coefficient measures lipophilicity. Values of LE ≥ 0.3 and LLE ≥ 5 are typically accepted as good starting points for optimizations efforts.

[2] = phosphate buffered saline, pH 7.4, aqueous buffer, kinetic from dmso stock

T1 sequence (Q8I719 whole entry): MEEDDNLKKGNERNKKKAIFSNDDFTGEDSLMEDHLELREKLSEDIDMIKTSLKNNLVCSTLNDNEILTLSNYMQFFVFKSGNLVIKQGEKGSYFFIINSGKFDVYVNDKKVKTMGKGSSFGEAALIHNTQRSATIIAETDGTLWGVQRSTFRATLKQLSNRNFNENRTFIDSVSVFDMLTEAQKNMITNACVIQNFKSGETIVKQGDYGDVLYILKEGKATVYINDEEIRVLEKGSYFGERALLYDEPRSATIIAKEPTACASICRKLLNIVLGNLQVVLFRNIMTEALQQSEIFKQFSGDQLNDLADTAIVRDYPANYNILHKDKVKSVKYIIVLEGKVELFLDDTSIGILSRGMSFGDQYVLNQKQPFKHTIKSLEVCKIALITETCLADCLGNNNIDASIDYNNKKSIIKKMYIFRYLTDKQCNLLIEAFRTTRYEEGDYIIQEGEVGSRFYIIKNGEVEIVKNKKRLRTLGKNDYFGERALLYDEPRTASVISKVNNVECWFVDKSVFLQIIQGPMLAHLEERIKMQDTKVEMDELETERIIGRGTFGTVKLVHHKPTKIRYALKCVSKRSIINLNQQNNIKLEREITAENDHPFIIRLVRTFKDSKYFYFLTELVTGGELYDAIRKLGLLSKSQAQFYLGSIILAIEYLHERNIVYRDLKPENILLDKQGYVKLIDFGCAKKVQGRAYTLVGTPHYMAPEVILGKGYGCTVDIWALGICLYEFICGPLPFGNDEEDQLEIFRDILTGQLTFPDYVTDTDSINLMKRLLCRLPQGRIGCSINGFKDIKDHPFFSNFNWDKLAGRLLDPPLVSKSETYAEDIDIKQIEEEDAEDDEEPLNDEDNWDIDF

Structure (SMILES)	solubility at 1 h [1, 2]	LE (WT PfPKG)	LLE (WT PfPKG)	solubility at 1 h [1]
CCn1cc(-c2ccncn2)c(-c2cccc(NS(=O)(=O)c3cc(F)ccc3F)c2)n1 [Compound 2]	412 µM (≈ 182 µg/mL)	0.33	4.2	–
Cc1ccc(S(C)(=O)=O)cc1Nc1nccc(-c2sc(CC(N)=O)nc2-c2ccccc2)n1 [Compound 3]	138 µM (≈ 66.2 µg/mL)	0.33	6.0	124 µM (≈ 59.5 µg/mL)
CC(C)(CN)c1cc(-c2ccc(Cl)c(O)c2)c(-c2ccncc2)o1 [Compound 4]	252 µM (≈ 86.4 µg/mL)	0.5	5.5	–
CCn1c(-c2nonc2N)nc2c(-c3ccccc3)ncc(CN(C)C3CCN(C)CC3)c21 [Compound 5]	–	0.3	4.3	–
CNS(=O)(=O)c1cccc(Nc2ccnc(Nc3cccc(S(=O)(=O)NC)c3)n2)c1 [Compound 6]	180 µM (≈ 80.7 µg/mL)	0.33	4.5	–
COc1ccc(-c2c(-c3cccc(C(=O)N4CCN(C)CC4)c3)oc3ncnc(N)c23)cc1 [Compound 7]	180 µM (≈ 79.8 µg/mL)	0.33	5.4	–
COc1ccc(CCNC(=O)CSc2ncnc3[nH]ncc23)cc1OC [Compound 8]	254 µM (≈ 94.9 µg/mL)	0.37	5.5	–
COc1cccc(Nc2nc(-c3ccncc3)cc(N3CCN(C)CC3)n2)c1 [Compound 9]	82 µM (≈ 30.9 µg/mL)	0.37	3.9	–
COc1cc(CS(C)(=O)=O)ccc1Nc1nc(Nc2cc(F)ccc2C(N)=O)c2cc[nH]c2n1 [Compound 10]	–	0.3	4.4	–
O=C(N[C@@H](CO)c1ccccc1)c1ccc2cncc(-c3cn[nH]c3)c2n1 [Compound 11]	4 µM (≈ 1.44 µg/mL)	0.36	4.9	–
NCCNCc1ccc(-c2cc3ccncc3cc2OC2CCNCC2)s1 [Compound 12]	–	0.33	4.7	–
CNCCOc1cnc(-c2ccoc2C)c(-c2ccc3cnccc3c2)c1 [Compound 13]	418 µM (≈ 150 µg/mL)	0.4	5.1	–
O=C(c1cccc(OCc2cccnc2)c1)N1CCc2sccc2C1CN1CCCCC1 (stereo not drawn) [Compound 14]	168 µM (≈ 75.2 µg/mL)	0.32	2.9	–
Nc1ccc2c(-c3ccncc3)c(-c3ccc(Cl)c(O)c3)[nH]c2n1 [Compound 15]	–	0.44	4.9	–
Nc1nc(Nc2cccc3cnccc23)nn1C(=O)C1CCCCC1 [Compound 16]	69 µM (≈ 23.2 µg/mL)	0.4	3.6	–
